Reference: PMC5796017, “Enantiomeric Effect of D-Amino Acid Substitution on the Mechanism of Action of α-Helical Membrane-Active Peptides” (International Journal of Molecular Sciences, 2017)
Converted amounts (≈) assume the structure as drawn.

Key:
[1] = test system: human red blood (hRBC) cells; assay: Hemolytic activity assay; assay type: cell-based; details: 2% human RBC in PBS, 37 °C, 2 h, absorbance 578 nm, triplicate
Experimental: The […] of the peptides was measured by a hemolytic activity assay as described previously. Briefly, healthy human RBCs were collected using an anticoagulation tube with EDTAK2 and centrifuged at 1000 rpm for 5 min. The erythrocytes were washed three times, then diluted to a concentration of 2% in phosphate-buffered saline (PBS). The peptides were serially diluted in PBS and 70 μL of the peptide solutions and 2% RBC suspension were added simultaneously to each well of a 96-well plate (round bottom) for a further incubation at 37 °C for 2 h. Then, the plates were centrifuged for 10 min at 3000 rpm and the supernatant (90 μL) was transferred to a 96-well plate (flat bottom). The absorbance of the supernatant was measured on a microplate reader at 578 nm. Erythrocytes in PBS and distilled water were used as the negative (0%) and positive (100%) controls, respectively. The hemolytic activity was calculated as the percentage of experimental group over positive control (100%), after subtraction of negative control (0%). The hemolytic assays were repeated in triplicate.

S. epidermidis ATCC12228 = assay: Antimicrobial activity, microtiter dilution MIC; assay type: cell-based, Staphylococcus epidermidis; details: G+; MH medium, 5 × 10^5 CFU/mL, 37 °C, 24 h, triplicate
Experimental: (§1) The antimicrobial activity of the peptides was determined by the standard microtiter dilution method and indicated as MIC (minimal inhibitory concentration) as described previously. Briefly, bacteria were cultured in Mueller–Hinton (MH) medium overnight at 37 °C, diluted to a final inoculum of 5 × 10^5 colony-forming units (CFU)/mL with MH and loaded into 96-well microtiter plates (90 μL/well) with serial dilution of peptides (10 μL/well), with a further incubation at 37 °C for 24 h. MIC was expressed as the lowest peptide concentration that inhibited the growth of bacteria. The antimicrobial assays were repeated in triplicate.

E. coli ATCC25922 = assay: Antimicrobial activity, microtiter dilution MIC; assay type: cell-based, Escherichia coli; details: G−; MH medium, 5 × 10^5 CFU/mL, 37 °C, 24 h, triplicate
Experimental: as §1

[2] = Circular dichroism (CD) secondary structure; assay type: physicochemical; details: for [θ]222, benign / [θ]222, 50% TFE: CD, 75 μM peptide, 25 °C; for [θ]222, benign: KP buffer (100 mM KCl, 50 mM KH2PO4/K2HPO4, pH 7.4); for [θ]222, 50% TFE / α-Helix (%), 50% TFE (relative helicity): KP buffer with 50% TFE; for α-Helix (%), 50% TFE (relative helicity) / α-Helix (%), benign: relative to molar ellipticity of V13K in 50% TFE; for α-Helix (%), benign: KP buffer
Text: The influence of the amino acid substitutions on the peptide secondary structure were investigated using circular dichroism (CD) spectroscopy under benign conditions (KP buffer) and under conditions designed to mimic the hydrophobic environment of the membrane (KP buffer with 50% TFE). D-amino acid substitutions reduced the helicity of the peptide analogs relative to that of peptide V13K, in both KP buffer and KP buffer with 50% TFE. […] As shown in Table 2 and Figure S1, the values of the relative helicity of peptides with polar face substitutions are in the order of K14D (76.99%) > S11D/K14D (51.33%) > S11D/K14D/T15D (38.67%). Similarly, the relative helicity of the peptides with substitutions on the non-polar face follows the same trend: A12D (70.83%) > F9D/A12D (38.26%) > F9D/A12D/V16D (36.41%). Since the values of the relative helicity of the peptides with D-amino acid substitutions on the non-polar face were less than those peptide analogs with the same number of D-amino acid substitutions on the polar face, it is clear that the amino acid residues on the non-polar face may be more important for stabilizing the α-helical structure than residues on the polar face.
The secondary structures of the peptides were examined using a Jasco J-810 CD spectrometer (Jasco, Easton, MD, USA) at 25 °C as described previously. […] The mean residue molar ellipticities were calculated according to the equation [θ] = θ/10lCMn, in which, θ represents the ellipticity in millidegrees, l is the optical path length of the cuvette in centimeters, CM is the peptide concentration in mol/L, and n is the number of residues in the peptide. The mean residue molar ellipticities at 222 nm, [θ]222 (degree·cm^2·dmol^−1), were used to calculate the relative helical content of the peptides.

[3] = RP-HPLC retention time as relative hydrophobicity; assay type: physicochemical; details: 25 °C, used by the paper as measure of relative hydrophobicity
Experimental: The RP-HPLC retention time has been widely used to represent the relative hydrophobicity of peptides in many studies.The relative hydrophobicity of the peptides was determined by the RP-HPLC retention times at 25 °C. The change in hydrophobicity of the peptides caused by D-amino acid substitutions was mainly due to the disruption of the helical structure.

S. aureus ATCC25923 = assay: Antimicrobial activity, microtiter dilution MIC; assay type: cell-based, Staphylococcus aureus; details: G+; MH medium, 5 × 10^5 CFU/mL, 37 °C, 24 h, triplicate
Experimental: as §1

P. aeruginosa ATCC27853 = assay: Antimicrobial activity, microtiter dilution MIC; assay type: cell-based, Pseudomonas aeruginosa; details: G−; MH medium, 5 × 10^5 CFU/mL, 37 °C, 24 h, triplicate
Experimental: as §1

HeLa = assay: MTT cell viability assay; assay type: cell-based, human; details: 24 h, mean ± SEM of three independent determinations
Experimental: (§2) HeLa, MIA PaCa-2, HPAC, and Bxpc-3 cells were maintained in Dulbecco’s modified Eagle medium) with 10% fetal bovine serum, penicillin (100 U/mL), and streptomycin ([…]) in a humid atmosphere at 37 °C with 5% CO2. The effect of the peptides on the survival of HeLa, MIA PaCa-2, HPAC, and Bxpc-3 cells was determined by 3-(4,5-dimethyl-2-thiazolyl)-2,5-diphenyl-2H-tetrazolium bromide (MTT) assay, as described in a previous study. Briefly, cells were seeded in 96-well plates at a density of 5000 per well. After overnight incubation, cells were incubated, in the absence, or presence of various concentrations of peptides for 24 h. Then, the formazan crystals formed by MTT were dissolved with dimethyl sulfoxide (DMSO) and the absorbance was determined at 492 nm with a microplate reader (GF-M3000; Gaomi Caihong Analytical Instruments Co., Shandong, China). The results were expressed as IC50 values, representing the concentration at which cell viability was reduced by 50%. The cytotoxicity assays were repeated in triplicate.

MIA PaCa-2 = assay: MTT cell viability assay; assay type: cell-based, human; details: MIA PaCa-2, MTT, 24 h; mean ± SEM of three independent determinations
Experimental: as §2

BxPC-3 = assay: MTT cell viability assay; assay type: cell-based, human; details: BxPC-3, MTT, 24 h; mean ± SEM of three independent determinations
Experimental: as §2

HPAC = assay: MTT cell viability assay; assay type: cell-based, human; details: 24 h, mean ± SEM of three independent determinations
Experimental: as §2

Compound	MHC (minimal hemolytic concentration) [1]	MIC (S. epidermidis ATCC12228)	MIC (E. coli ATCC25922)	[θ]222, benign [2]	[θ]222, 50% TFE [2]	α-Helix (%), 50% TFE (relative helicity) [2]	α-Helix (%), benign [2]	tR (RP-HPLC retention time), relative hydrophobicity [3]	MIC (S. aureus ATCC25923)	MIC (P. aeruginosa ATCC27853)	IC50 (HeLa)	IC50 (MIA PaCa-2)	IC50 (BxPC-3)	IC50 (HPAC)
CC[C@H](C)[C@H](NC(=O)[C@H](C)NC(=O)[C@H](CCCCN)NC(=O)[C@H](CC(C)C)NC(=O)[C@H](C)NC(=O)[C@@H](NC(=O)[C@H](Cc1c[nH]cn1)NC(=O)[C@H](CC(C)C)NC(=O)[C@@H](NC(=O)[C@@H](NC(=O)[C@H](CCCCN)NC(=O)[C@H](CCCCN)NC(=O)[C@@H](C)NC(=O)[C@H](CO)NC(=O)[C@H](CCCCN)NC(=O)[C@H](Cc1ccccc1)NC(=O)[C@@H](NC(=O)[C@H](CCCCN)NC(=O)[C@H](CC(C)C)NC(=O)[C@H](Cc1ccccc1)NC(=O)[C@H](CO)NC(=O)[C@H](CCCCN)NC(=O)[C@H](Cc1c[nH]c2ccccc12)NC(=O)[C@H](CCCCN)NC(C)=O)[C@@H](C)O)[C@@H](C)O)C(C)C)[C@@H](C)O)C(=O)N[C@@H](CO)C(=O)N[C@@H](CO)C(N)=O [Peptide A12D]	125 µM	16 µM (≈ 47.9 µg/mL)	32 µM (≈ 95.7 µg/mL)	−4130.9 degree·cm^2·dmol^−1	−35,785.1 degree·cm^2·dmol^−1	70.83%	8.2%	41.46 min	64 µM (≈ 191 µg/mL)	16 µM (≈ 47.9 µg/mL)	28.8 ± 0.8 µM	29.9 ± 4.8 µM	45.1 ± 1 µM	15.5 ± 1.7 µM
CC[C@H](C)[C@H](NC(=O)[C@H](C)NC(=O)[C@H](CCCCN)NC(=O)[C@H](CC(C)C)NC(=O)[C@H](C)NC(=O)[C@@H](NC(=O)[C@H](Cc1c[nH]cn1)NC(=O)[C@H](CC(C)C)NC(=O)[C@@H](NC(=O)[C@H](NC(=O)[C@@H](CCCCN)NC(=O)[C@H](CCCCN)NC(=O)[C@H](C)NC(=O)[C@@H](CO)NC(=O)[C@H](CCCCN)NC(=O)[C@H](Cc1ccccc1)NC(=O)[C@@H](NC(=O)[C@H](CCCCN)NC(=O)[C@H](CC(C)C)NC(=O)[C@H](Cc1ccccc1)NC(=O)[C@H](CO)NC(=O)[C@H](CCCCN)NC(=O)[C@H](Cc1c[nH]c2ccccc12)NC(=O)[C@H](CCCCN)NC(C)=O)[C@@H](C)O)[C@H](C)O)C(C)C)[C@@H](C)O)C(=O)N[C@@H](CO)C(=O)N[C@@H](CO)C(N)=O [S11D/K14D/T15D]	250 µM	16 µM (≈ 47.9 µg/mL)	125 µM (≈ 374 µg/mL)	−2845.85 degree·cm^2·dmol^−1	−19,537.5 degree·cm^2·dmol^−1	38.67%	5.6%	39.59 min	64 µM (≈ 191 µg/mL)	125 µM (≈ 374 µg/mL)	41.1 ± 0.5 µM	56.8 ± 3.3 µM	45.5 ± 5.6 µM	54.2 ± 1.2 µM
CC[C@H](C)[C@H](NC(=O)[C@H](C)NC(=O)[C@H](CCCCN)NC(=O)[C@H](CC(C)C)NC(=O)[C@H](C)NC(=O)[C@@H](NC(=O)[C@H](Cc1c[nH]cn1)NC(=O)[C@H](CC(C)C)NC(=O)[C@@H](NC(=O)[C@@H](NC(=O)[C@@H](CCCCN)NC(=O)[C@H](CCCCN)NC(=O)[C@H](C)NC(=O)[C@@H](CO)NC(=O)[C@H](CCCCN)NC(=O)[C@H](Cc1ccccc1)NC(=O)[C@@H](NC(=O)[C@H](CCCCN)NC(=O)[C@H](CC(C)C)NC(=O)[C@H](Cc1ccccc1)NC(=O)[C@H](CO)NC(=O)[C@H](CCCCN)NC(=O)[C@H](Cc1c[nH]c2ccccc12)NC(=O)[C@H](CCCCN)NC(C)=O)[C@@H](C)O)[C@@H](C)O)C(C)C)[C@@H](C)O)C(=O)N[C@@H](CO)C(=O)N[C@@H](CO)C(N)=O [S11D/K14D]	125 µM	16 µM (≈ 47.9 µg/mL)	64 µM (≈ 191 µg/mL)	−3524.85 degree·cm^2·dmol^−1	−25,931.3 degree·cm^2·dmol^−1	51.33%	7.0%	40.77 min	64 µM (≈ 191 µg/mL)	32 µM (≈ 95.7 µg/mL)	30.6 ± 0.5 µM	41.3 ± 2.6 µM	22.4 ± 2.3 µM	25.5 ± 0.5 µM
